Data taken from patent publication US11584714B2 (priority 2018, dated 2023).
Read-outs that look alike come from different tables or passages of the source.

Columns and labels:
Type in all cases: biochemical
MASP-2 (CCP1-CCP2-SP) = MASP-2 (CCP1-CCP2-SP) (Homo sapiens (Human), UniProt O00187); test: biochemical; conditions: for MASP-2 vs. thrombin selectivity: selectivity for MASP-2 inhibition versus thrombin
mMASP-2 = mMASP-2 (Mus musculus (Mouse), UniProt Q91WP0); test: Enzymatic inhibition of mMASP-2
Sequence of mMASP-2 (Q91WP0 20-685): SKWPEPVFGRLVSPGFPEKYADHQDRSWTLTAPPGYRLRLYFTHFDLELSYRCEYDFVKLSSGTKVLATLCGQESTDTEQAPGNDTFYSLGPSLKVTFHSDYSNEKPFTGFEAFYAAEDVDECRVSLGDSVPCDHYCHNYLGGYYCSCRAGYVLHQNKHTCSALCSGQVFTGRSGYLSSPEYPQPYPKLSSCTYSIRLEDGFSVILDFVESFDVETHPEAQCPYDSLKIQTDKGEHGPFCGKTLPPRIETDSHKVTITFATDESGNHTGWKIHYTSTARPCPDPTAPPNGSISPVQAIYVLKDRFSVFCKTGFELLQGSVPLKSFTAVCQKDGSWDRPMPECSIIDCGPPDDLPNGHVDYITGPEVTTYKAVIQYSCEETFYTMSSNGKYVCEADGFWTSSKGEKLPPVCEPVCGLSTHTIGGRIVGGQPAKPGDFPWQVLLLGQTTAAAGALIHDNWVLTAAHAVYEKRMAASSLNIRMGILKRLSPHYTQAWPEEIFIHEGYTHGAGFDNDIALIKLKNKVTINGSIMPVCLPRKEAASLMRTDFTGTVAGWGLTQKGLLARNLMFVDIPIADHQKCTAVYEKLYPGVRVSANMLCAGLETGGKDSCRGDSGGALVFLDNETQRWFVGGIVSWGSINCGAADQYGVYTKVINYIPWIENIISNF

human α-thrombin = human α-thrombin (Homo sapiens (Human), UniProt P00734); test: Enzymatic assay for thrombin (Boc-VPR-AMC substrate)

Sequence of MASP-2 (CCP1-CCP2-SP) (O00187 445-686): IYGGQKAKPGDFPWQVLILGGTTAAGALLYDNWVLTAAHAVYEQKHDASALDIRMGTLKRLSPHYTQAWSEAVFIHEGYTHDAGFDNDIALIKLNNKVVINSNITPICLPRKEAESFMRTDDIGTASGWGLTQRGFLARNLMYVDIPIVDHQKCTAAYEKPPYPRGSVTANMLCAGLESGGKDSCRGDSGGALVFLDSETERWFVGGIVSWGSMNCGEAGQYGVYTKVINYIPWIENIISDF

| SMILES | Ki (MASP-2 (CCP1-CCP2-SP); read-out: MASP-2 Ki) | MASP-2 vs. thrombin selectivity (MASP-2 (CCP1-CCP2-SP)) | Ki (mMASP-2; read-out: mMASP-2 Ki) | Ki (human α-thrombin; read-out: Thrombin Ki) | Ki (MASP-2 (CCP1-CCP2-SP)) | Ki (mMASP-2) | Ki (human α-thrombin; Thrombin Ki (μM)) |
| --- | --- | --- | --- | --- | --- | --- | --- |
| Cc1cccc([C@H]2CN[C@@H](C(=O)N[C@@H](C)C(=O)NCc3ccc(N)nc3C)C2)c1 [compound 1257, (2R,4S)—N—((S)-1-(((6-Amino-2-methylpyridin-3-yl)methyl)amino)-1-oxopropan-2-yl)-4-(m-tolyl)pyrrolidine-2-carboxamide] | < 0.5 µM | *** (≥25 to <100-fold) | 10 to 25 µM | > 25 µM | – | – | – |
| C[C@H](NC(=O)[C@H](N)C/C=C/c1ccccc1)C(=O)NCc1ccc(N)nc1 [compound 1261, (R, E)-2-Amino-N—((S)-1-(((6-aminopyridin-3-yl)methyl)amino)-1-oxopropan-2-yl)-5-phenylpent-4-enamide] | – | * (≥1.0 to <5.0-fold) | 10 to 25 µM | > 25 µM | 10 to 25 µM | – | – |
| CCCOC(=O)NC(=N)c1ccc(CNC(=O)[C@H](C)NC(=O)[C@H]2C[C@H](c3ccccc3)CN2)cc1 [compound 1263, Propyl (imino(4-(((S)-2-((2R,4R)-4-phenylpyrrolidine-2-carboxamido)propanamido)methyl)phenyl)methyl)carbamate] | – | – | – | > 25 µM | 2.5 to 10 µM | 2.5 to 10 µM | – |
| CC(=O)O/N=C(\N)c1ccc(CNC(=O)[C@H](C)NC(=O)[C@H]2C[C@H](c3ccccc3)CN2)cc1 [compound 1264, (2R,4R)—N—((S)-1-((4-((Z)-N′-Acetoxycarbamimidoyl)benzyl)amino)-1-oxopropan-2-yl)-4-phenylpyrrolidine-2-carboxamide] | – | – | – | > 25 µM | 2.5 to 10 µM | 10 to 25 µM | – |
| Cc1nc(N)ccc1CNC(=O)[C@H](C)NC(=O)[C@H]1C[C@H](c2ccccc2)CN1 [compound 1265, (2R,4R)—N—((S)-1-(((6-Amino-2-methylpyridin-3-yl)methyl)amino)-1-oxopropan-2-yl)-4-phenylpyrrolidine-2-carboxamide] | < 0.5 µM | **** (≥100-fold) | 2.5 to 10 µM | > 25 µM | – | – | – |
| COc1cc(CNC(=O)[C@H](C)NC(=O)[C@H](N)CCc2ccccc2)cnc1N [compound 1266, (R)-2-Amino-N—((S)-1-(((6-amino-5-methoxypyridin-3-yl)methyl)amino)-1-oxopropan-2-yl)-4-phenylbutanamide] | – | ** (≥5.0 to <25-fold) | > 25 µM | > 25 µM | 0.5 to 2.5 µM | – | – |
| C[C@H](NC(=O)[C@H](N)CCc1ccccc1)C(=O)NCc1cnc(N)c(F)c1 [compound 1267, (R)-2-amino-N—((S)-1-(((6-amino-5-fluoropyridin-3-yl)methyl)amino)-1-oxopropan-2-yl)-4-phenylbutanamide] | – | – | > 25 µM | > 25 µM | 2.5 to 10 µM | – | – |
| C[C@H](NC(=O)[C@@H](CCc1ccccc1)NCc1ccc(C(N)=O)cc1)C(=O)NCc1ccc(C(=N)N)cc1 [compound 1268, 4-((((R)-1-(((S)-1-((4-Carbamimidoylbenzyl)amino)-1-oxopropan-2-yl)amino)-1-oxo-4-phenylbutan-2-yl)amino)methyl)benzamide] | < 0.5 µM | * (≥1.0 to <5.0-fold) | < 0.5 µM | < 0.5 µM | – | – | – |
| CC(=O)Nc1ccc(Cl)cc1CNC(=O)[C@H](C)NC(=O)[C@H]1C[C@H](c2ccccc2)CN1 [compound 1269, (2R,4R)—N—((S)-1-((2-Acetamido-5-chlorobenzyl)amino)-1-oxopropan-2-yl)-4-phenylpyrrolidine-2-carboxamide] | – | ** (≥5.0 to <25-fold) | 10 to 25 µM | > 25 µM | 0.5 to 2.5 µM | – | – |
| C[C@H](NC(=O)[C@H](N)CCc1ccccc1)C(=O)NCc1ccc(C(=N)N)nc1 [compound 1270, (R)-2-Amino-N—((S)-1-(((6-carbamimidoylpyridin-3-yl)methyl)amino)-1-oxopropan-2-yl)-4-phenylbutanamide] | < 0.5 µM | ** (≥5.0 to <25-fold) | < 0.5 µM | < 0.5 µM | – | – | – |
| C[C@H](NC(=O)[C@H]1C[C@@H](c2ccccc2)CCN1)C(=O)NCc1ccccc1 [compound 1271, (2R,4S)—N—((S)-1-(benzylamino)-1-oxopropan-2-yl)-4-phenylpiperidine-2-carboxamide] | – | – | > 25 µM | > 25 µM | 2.5 to 10 µM | – | – |
| C[C@H](NC(=O)[C@H]1C[C@H](c2ccccc2)CN1)C(=O)NCc1ccc(C(=N)N)nc1 [compound 1272, (2R,4R)—N—((S)-1-(((6-Carbamimidoylpyridin-3-yl)methyl)amino)-1-oxopropan-2-yl)-4-phenylpyrrolidine-2-carboxamide] | < 0.5 µM | *** (≥25 to <100-fold) | < 0.5 µM | – | – | – | 0.5 to 2.5 µM |
| C[C@H](NC(=O)[C@H]1C[C@H](c2ccccc2)CN1)C(=O)NCc1ccc(C(N)=O)nc1 [compound 1273, 5-(((S)-2-((2R,4R)-4-Phenylpyrrolidine-2-carboxamido)propanamido)methyl)picolinamide] | – | – | 10 to 25 µM | > 25 µM | 10 to 25 µM | – | – |
| C[C@H](NC(=O)[C@H]1C[C@H](c2ccccc2)CN1)C(=O)NCc1cc(Cl)ccc1NS(C)(=O)=O [compound 1274, (2R,4R)—N—((S)-1-((5-chloro-2-(methylsulfonamido)benzyl)amino)-1-oxopropan-2-yl)-4-phenylpyrrolidine-2-carboxamide] | – | ** (≥5.0 to <25-fold) | 10 to 25 µM | > 25 µM | 2.5 to 10 µM | – | – |
| C[C@H](NC(=O)[C@H](N)CCc1ccccc1)C(=O)NCc1cnc(N)c(Cl)c1 [compound 1275, (R)-2-Amino-N—((S)-1-(((6-amino-5-chloropyridin-3-yl)methyl)amino)-1-oxopropan-2-yl)-4-phenylbutanamide] | – | *** (≥25 to <100-fold) | > 25 µM | > 25 µM | 0.5 to 2.5 µM | – | – |
| C[C@H](NC(=O)[C@H]1C[C@@H](c2cccc(C(F)(F)F)c2)CN1)C(=O)NCc1ccc(C(=N)N)cc1 [compound 1276, (2R,4S)—N—((S)-1-((4-Carbamimidoylbenzyl)amino)-1-oxopropan-2-yl)-4-(3-(trifluoromethyl)phenyl)pyrrolidine-2-carboxamide] | < 0.5 µM | *** (≥25 to <100-fold) | < 0.5 µM | – | – | – | 0.5 to 2.5 µM |
| C[C@H](NC(=O)[C@H]1C[C@@H](c2cccc(CN)c2)CN1)C(=O)NCc1ccc(C(=N)N)cc1 [compound 1277, (2R,4S)-4-(3-(Aminomethyl)phenyl)-N-((S)-1-((4-carbamimidoylbenzyl)amino)-1-oxopropan-2-yl)pyrrolidine-2-carboxamide] | < 0.5 µM | ** (≥5.0 to <25-fold) | < 0.5 µM | < 0.5 µM | – | – | – |
| C[C@H](NC(=O)[C@H]1C[C@@H](c2cccc(C#N)c2)CN1)C(=O)NCc1ccc(C(=N)N)cc1 [compound 1278, (2R,4S)—N—((S)-1-((4-Carbamimidoylbenzyl)amino)-1-oxopropan-2-yl)-4-(3-cyanophenyl)pyrrolidine-2-carboxamide] | < 0.5 µM | *** (≥25 to <100-fold) | < 0.5 µM | – | – | – | 2.5 to 10 µM |
| C[C@H](NC(=O)[C@H](N)CCc1ccccc1)C(=O)NCc1cc(Br)ccc1O [compound 1279, (R)-2-amino-N—((S)-1-((5-bromo-2-hydroxybenzyl)amino)-1-oxopropan-2-yl)-4-phenylbutanamide] | – | ** (≥5.0 to <25-fold) | > 25 µM | – | 0.5 to 2.5 µM | – | 2.5 to 10 µM |
| C[C@H](NC(=O)[C@H](N)CCc1ccccc1)C(=O)NCc1ccc(CN)nc1 [compound 1280, (R)-2-Amino-N—((S)-1-(((6-(aminomethyl)pyridin-3-yl)methyl)amino)-1-oxopropan-2-yl)-4-phenylbutanamide] | – | – | 10 to 25 µM | > 25 µM | 2.5 to 10 µM | – | – |
| C[C@H](NC(=O)[C@H]1C[C@H](c2ccccc2)CN1)C(=O)NCC1CCc2nc(N)sc2C1 (stereo partly drawn) [compound 1281, (2R,4R)—N-((2S)-1-(((2-Amino-4,5,6,7-tetrahydrobenzo[d]thiazol-6-yl)methyl)amino)-1-oxopropan-2-yl)-4-phenylpyrrolidine-2-carboxamide] | – | – | > 25 µM | > 25 µM | 2.5 to 10 µM | – | – |
| Cc1nc(N)ccc1CNC(=O)[C@H](C)NC(=O)[C@@H]1C[C@@H](Cc2ccccc2)CN1 [compound 1282, (2S,4R)—N—((S)-1-(((6-Amino-2-methylpyridin-3-yl)methyl)amino)-1-oxopropan-2-yl)-4-benzylpyrrolidine-2-carboxamide] | – | – | > 25 µM | > 25 µM | 10 to 25 µM | – | – |
| Cc1nc(N)ccc1CNC(=O)[C@H](C)NC(=O)[C@H]1C[C@@H](Cc2ccccc2)CN1 [compound 1283, (2R,4R)—N—((S)-1-(((6-Amino-2-methylpyridin-3-yl)methyl)amino)-1-oxopropan-2-yl)-4-benzylpyrrolidine-2-carboxamide] | < 0.5 µM | *** (≥25 to <100-fold) | 0.5 to 2.5 µM | – | – | – | 2.5 to 10 µM |
| C[C@H](NC(=O)[C@H]1C[C@@H](Cc2ccccc2)CN1)C(=O)NCc1ccc(C(=N)N)cc1 [compound 1284, (2R,4R)-4-Benzyl-N-((S)-1-((4-carbamimidoylbenzyl)amino)-1-oxopropan-2-yl)pyrrolidine-2-carboxamide] | < 0.5 µM | * (≥1.0 to <5.0-fold) | < 0.5 µM | < 0.5 µM | – | – | – |
| C[C@H](NC(=O)[C@@H]1C[C@@H](Cc2ccccc2)CN1)C(=O)NCc1ccc(C(=N)N)cc1 [compound 1285, (2S,4R)-4-Benzyl-N-((S)-1-((4-carbamimidoylbenzyl)amino)-1-oxopropan-2-yl)pyrrolidine-2-carboxamide] | – | ** (≥5.0 to <25-fold) | 0.5 to 2.5 µM | – | 0.5 to 2.5 µM | – | 2.5 to 10 µM |
